As usually defined, the pKd is the Kd on a negative log10 scale, so that one unit is a factor of ten. Read a low pKd as a high Kd.

The structures appear in SMILES notation. pKd: −log10 of the molar value.

These results are taken from BindingDB's records for doi:10.1074/jbc.M110.164293 (Manchester Interdisciplinary Biocentre, 2010).

Holding throughout (test): Binding Assay
For assay [1], the target named is T1, Steroid C26-monooxygenase (Mycobacterium tuberculosis (strain CDC 1551 / Oshkosh), UniProt P9WPL4).
T1 sequence (P9WPL4 whole entry): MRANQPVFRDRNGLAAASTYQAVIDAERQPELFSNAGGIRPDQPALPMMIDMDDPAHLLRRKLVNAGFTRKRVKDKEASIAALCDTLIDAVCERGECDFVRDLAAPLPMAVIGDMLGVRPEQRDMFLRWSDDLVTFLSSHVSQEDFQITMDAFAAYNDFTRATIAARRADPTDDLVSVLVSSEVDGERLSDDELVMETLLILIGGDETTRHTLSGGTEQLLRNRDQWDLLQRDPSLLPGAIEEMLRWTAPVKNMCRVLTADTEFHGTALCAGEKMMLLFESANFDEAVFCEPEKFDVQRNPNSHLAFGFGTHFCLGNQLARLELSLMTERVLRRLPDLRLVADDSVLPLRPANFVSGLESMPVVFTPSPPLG
The text has this: (§1) Substrate and ligand binding assay using UV- visible absorbance analysis of CYP142 was done on a Cary UV-50 UV-visible scanning spectrophotometer (Varian, UK) using a 1-cm path length quartz cuvette, recording spectra between 250 and 800 nm.

Assay [2] concerns the target T2, Cytochrome P450 144 (Mycobacterium tuberculosis (strain CDC 1551 / Oshkosh), UniProt P9WPL0).
T2 sequence (P9WPL0 whole entry): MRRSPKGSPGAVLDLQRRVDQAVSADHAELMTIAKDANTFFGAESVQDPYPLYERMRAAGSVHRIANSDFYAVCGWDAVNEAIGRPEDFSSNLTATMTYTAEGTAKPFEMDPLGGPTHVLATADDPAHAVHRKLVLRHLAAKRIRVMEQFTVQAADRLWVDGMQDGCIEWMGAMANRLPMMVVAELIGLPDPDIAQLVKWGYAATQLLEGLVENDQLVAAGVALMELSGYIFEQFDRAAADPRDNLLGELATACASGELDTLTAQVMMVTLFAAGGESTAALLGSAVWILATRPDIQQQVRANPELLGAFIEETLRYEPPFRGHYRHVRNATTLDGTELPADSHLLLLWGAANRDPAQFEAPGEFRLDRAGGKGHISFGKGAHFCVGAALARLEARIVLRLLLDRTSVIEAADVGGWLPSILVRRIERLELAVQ
Excerpt: as §1

Assay [3] concerns the target T3, Steroid C26-monooxygenase (Mycobacterium tuberculosis (strain CDC 1551 / Oshkosh), UniProt P9WPP0).
T3 sequence (P9WPP0 whole entry): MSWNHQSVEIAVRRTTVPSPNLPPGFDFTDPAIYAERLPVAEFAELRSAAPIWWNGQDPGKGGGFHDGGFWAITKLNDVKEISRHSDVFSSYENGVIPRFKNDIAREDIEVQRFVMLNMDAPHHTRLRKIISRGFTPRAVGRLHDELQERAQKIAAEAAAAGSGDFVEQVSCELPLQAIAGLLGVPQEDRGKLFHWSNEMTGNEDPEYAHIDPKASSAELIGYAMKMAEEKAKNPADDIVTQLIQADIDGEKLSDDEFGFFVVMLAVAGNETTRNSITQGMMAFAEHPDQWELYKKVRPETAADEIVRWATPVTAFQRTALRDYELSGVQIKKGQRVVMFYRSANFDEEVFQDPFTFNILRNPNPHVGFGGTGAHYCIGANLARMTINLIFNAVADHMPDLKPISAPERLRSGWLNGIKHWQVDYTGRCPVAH
Excerpt: as §1

`c1ccc(-c2c[nH]cn2)cc1`: the results for the pKd in assay [1], in assay [2] and in assay [3] were 4.92, 3.55 and 3.67, respectively.
On to `Clc1ccccc1C(c1ccccc1)(c1ccccc1)n1ccnc1`, for which the values for the negative logarithm of the Kd (pKd) in assay [1], in assay [2] and in assay [3] were 5.42, 6.43 and 5.28, respectively.
For the compound `CC(C)CCC[C@@H](C)[C@H]1CC[C@H]2[C@@H]3CCC4=CC(=O)CC[C@]4(C)[C@H]3CC[C@]12C` [4-Cholesten-3-one], the negative logarithm of the Kd (pKd) in assay [1] was 6.44; in assay [3] it was 5.92.
For `CC(=O)N1CCN(c2ccc(OC[C@H]3CO[C@](Cn4ccnc4)(c4ccc(Cl)cc4Cl)O3)cc2)CC1` [24F2-1,25(OH)D3], the negative logarithm of the Kd (pKd) in assay [1] was 4.68; in assay [2] it was 3.87; in assay [3], 4.57.
For the compound `CC(C)CCC[C@@H](C)[C@H]1CC[C@H]2[C@@H]3CC=C4C[C@@H](O)CC[C@]4(C)[C@H]3CC[C@]12C` [(1S,2R,5S,10S,11S,14R,15R)-2,15-dimethyl-14-[(2R)-6-methylheptan-2-yl]tetracyclo[8.7.0.0^{2,7}.0^{11,15}]heptadec-7-en-5-ol], the negative logarithm of the Kd (pKd) is 6.47 in assay [1] and 6.96 in assay [3].
For the compound `Clc1ccc(CO[C@@H](Cn2ccnc2)c2ccc(Cl)cc2Cl)c(Cl)c1` [Brentan], the pKd in assay [1] is 5.40; in assay [2], 6.01; in assay [3] it was 5.34.
For the compound `Clc1ccc(COC(Cn2ccnc2)c2ccc(Cl)cc2Cl)cc1` (configuration not stated) [ECONAZOLE], the pKd in assay [1] is 5.34; in assay [2], 6.11; in assay [3], 4.93.
Regarding `OC(Cn1cncn1)(Cn1cncn1)c1ccc(F)cc1F` [Fungata], the pKd is 3.07 in assay [1] and 4.37 in assay [3].
In turn, `CCC(C)n1ncn(-c2ccc(N3CCN(c4ccc(OC[C@H]5CO[C@](Cn6cncn6)(c6ccc(Cl)cc6Cl)O5)cc4)CC3)cc2)c1=O` (some centres not stated) [Oriconazole] gave a pKd in assay [3] of 4.52.
